Assay results reported in patent US6699861B1, “Anti-quinazoline compounds” (Cancer Research Technology Limited, priority 1999, dated 2004).
Where “and” joins values, the source holds several entries; their conditions need not be identical. Equal values may be shown once. Read-outs that look alike come from different tables or passages of the source.

What was measured:
[1] = system: W1L2 human lymphoblastoid cells; experiment: Growth inhibition of W1L2 cells; assay type: cell-based; conditions: W1L2 suspension cells, read-out: Inhibition of Cell Growth IC50, W1L2 (B)
W1L2:C1 cells = experiment: Growth inhibition of W1L2:C1 cells (elevated TS); assay type: cell-based, human; conditions: read-out: Inhibition of Cell Growth IC50, W1L2:C1 (B)
Method: W1L2 human lymphoblastoid, W1L2:C1 (elevated TS; O'Connor et al, Cancer Res, 52, 1137-1143 (1992)) and L1210 mouse leukaemia cells were cultured in suspension and A2780, PXN94, 41M, HX62, SKOV3 (human ovarian carcinoma), MCF-7 (human breast carcinoma), HT29 and SW480 (human colon carcinoma) cell lines were grown as monolayers as described in Jackman et al, Cancer Res, 50, 5212-5218 (1990) and Jackman et al, Br. J. Cancer, 71, 914-924 (1995).
Growth inhibition studies with suspension cells were performed as described in Jackman et al, Cancer Res, 50, 5212-5218 (1990). Activity against the adherent cell lines was assessed by MTT assay (Twentyman et al, Br. J. Cancer, 56, 279-285 (1987)) where cells were seeded in 96-well plates at 1000-3000 cells per well, incubated overnight and then exposed to the appropriate drug concentrations for 96-120 h.

W1L2:R865 cell line = experiment: Growth inhibition of W1L2:R865 cells (acquired resistance to CB 30865); assay type: cell-based, human
Method: A cell line was raised with acquired resistance to CB 30865, denoted W1L2:R865, by stepwise selection over ˜9 months.
The generated W1L2:R865 cell line was routinely cultured in 0.03 μm CB 30865 under the same conditions as W1L2 cells, with cells being grown in the absence of CB 30865 for ˜2 weeks before an experiment.
The activity of compounds against W1L2:R865 cells was determined within parallel experiments by 72 h growth inhibition assay (Coulter counts). CB 30865 was included in every experiment as an internal control.

[2] = Homo sapiens, Lymphoblastoid cell
[3] = Homo sapiens, 72 h growth inhibition assay (Coulter counts), read-out: Inhibition of Cell Growth IC50, W1L2:R865 (D)
[4] = Homo sapiens, 72 h, read-out: Inhibition of Cell Growth IC50, W1L2:R865 (D), 72 h growth inhibition assay (Coulter counts)
[5] = read-out: Inhibition of Cell Growth IC50, W1L2:R865 (D), 72 h growth inhibition assay (Coulter counts)

`C#CCN(c1ccc(C(=O)NCc2cccnc2)cc1)C1CCc2cc3cc(C)n(C)c(=O)c3cc21` (stereo not drawn) [CB300847, reference compound] showed an IC50 [1, 2] of 6.5 ± 1.7 nM, an IC50 (W1L2:C1 cells; Homo sapiens) of 2.7 nM and an IC50 (W1L2:R865 cell line; [3]) of 2500 nM.

With `C#CCN(Cc1cc2c(=O)n(C)c(CN3CCN(C)CC3)nc2cc1Cl)c1ccc(C(=O)NCc2cccnc2)cc1` [CB300921, 4-[N-[7-Chloro-3-methyl-2-(4-methyl-piperazin-1-yl)methyl-4-oxo-3,4-dihydroquinazolin-6-ylmethyl]-N-(prop-2-ynyl)amino]-N-(3-pyridylmethyl)benzamide] the IC50 [1, 2] was 0.65 ± 0.15 nM, the IC50 (W1L2:C1 cells) was 0.62 nM and 0.54 nM and the IC50 (W1L2:R865 cell line; [4]) was > 10000 nM.

For `C#CCN(Cc1cc2c(=O)n(C)c(CN3CCOCC3)nc2cc1Cl)c1ccc(C(=O)NCc2cccnc2)cc1` [CB300925, 4-[N-[7-Chloro-3-methyl-2-morpholinomethyl-4-oxo-3,4-dihydroquinazolin-6-ylmethyl]-N-(prop-2-ynyl)amino]-N-(3-pyridylmethyl)benzamide], the IC50 [1, 2] was 2 ± 0.36 nM, the IC50 (W1L2:R865 cell line; [4]) was 19000 nM and the melting point was > 145 °C.

`C#CCN(Cc1cc2c(=O)n(C)c(CN3CCN(C)CC3)nc2cc1Cl)c1ccc(C(=O)NCCCn2ccnc2)cc1` [CB300929, 4-[N-[7-Chloro-3-methyl-2-(4-methyl-piperazin-1-yl)methyl-4-oxo-3,4-dihydroquinazolin-6-ylmethyl]-N-(prop-2-ynyl)amino]-N-[3-(1H-imidazol-1-yl)propyl)benzamide] gave an IC50 [1, 2] of 2.1 nM, an IC50 [1] of 2.2 nM and an IC50 (W1L2:C1 cells; Homo sapiens) of 2.3 nM. It also gave an IC50 (W1L2:C1 cells) of 2.2 nM, an IC50 (W1L2:R865 cell line; [4]) of 18000 nM and an IC50 (W1L2:R865 cell line; [5]) of 14000 nM. For the same compound, the melting point was > 115 °C.

`C#CCN(Cc1cc2c(=O)n(C)c(CN3CCN(CCO)CC3)nc2cc1Cl)c1ccc(C(=O)NCc2cccnc2)cc1` [CB300930, 4-[N-[7-Chloro-3-methyl-2-(4-(2-hydroxyethyl)-piperazin-1-yl)methyl-4-oxo-3,4-dihydroquinazolin-6-ylmethyl]-N-(prop-2-ynyl)amino]-N-(3-pyridylmethyl)benzamide] gave an IC50 (W1L2:R865 cell line; [4]) of 22000 nM, an IC50 (W1L2:R865 cell line; [5]) of 19000 nM and a melting point of 115 to 117 °C.

With `C#CCN(Cc1cc2c(=O)n(CC(=O)OC)c(CN3CCCCC3)nc2cc1Cl)c1ccc(C(=O)NCc2cccnc2)cc1` [CB300931, 4-[N-[7-Chloro-3-methoxycarbonylmethyl-4-oxo-2-piperidin-1-ylmethyl-3,4-dihydroquinazolin-6-ylmethyl]-N-(prop-2-ynyl)amino]-N-(3-pyridylmethyl)benzamide] the IC50 [1, 2] was 11 nM, the IC50 (W1L2:C1 cells; Homo sapiens) was 9.6 nM and the IC50 (W1L2:R865 cell line; [4]) was 23000 nM. For the same compound, the melting point was 214 to 216 °C.

Work on `C#CCN(Cc1cc2c(=O)n(CCN(C)C)c(CN3CCCCC3)nc2cc1Cl)c1ccc(C(=O)NCc2cccnc2)cc1` [CB300933, 4-[N-[7-Chloro-3-(2-dimethylaminoethyl)-4-oxo-2-piperidin-1-ylmethyl-3,4-dihydroquinazolin-6-ylmethyl]-N-(prop-2-ynyl)amino]-N-(3-pyridylmethyl)benzamide] yielded an IC50 [1, 2] of 2.9 nM, an IC50 (W1L2:C1 cells; Homo sapiens) of 2.8 nM and an IC50 (W1L2:R865 cell line; [4]) of 7200 nM. For the same compound, the melting point was 90 to 93 °C.

`C#CCN(Cc1cc2c(=O)n(C)c(CN3CCC(O)CC3)nc2cc1Cl)c1ccc(C(=O)NCc2cccnc2)cc1` [CB300939, 4-[N-[7-Chloro3-methyl-2-(4-hydroxypiperidin-1-yl)methyl-4-oxo-3,4-dihydroquinazolin-6ylmethyl]-N-(prop-2-ynyl)amino]-N-(3-pyridylmethyl)benzamide] showed an IC50 [1, 2] of 0.72 nM, an IC50 (W1L2:C1 cells; Homo sapiens) of 0.7 nM and an IC50 (W1L2:R865 cell line; [4]) of 18000 nM.

In the case of `C#CCN(Cc1cc2c(=O)n(C)c(CN3CCCCC3)nc2cc1Cl)c1ccc(C(=O)NCCCn2cncn2)cc1` [CB300942], the IC50 [1] is reported as > 500 nM, the IC50 (W1L2:C1 cells) is reported as > 500 nM and the IC50 (W1L2:R865 cell line; 72 h growth inhibition assay (Coulter counts), read-out: Inhibition of Cell Growth IC50, W1L2:R865 (D)) is reported as 20000 nM.

In the case of `CN(c1ccc(C(=O)NCc2cccnc2)cc1)C1CCc2cc3nc(CN4CCCCC4)n(C)c(=O)c3cc21` (stereo not drawn) [CB300943], the IC50 [1, 2] is reported as 28 nM, the IC50 (W1L2:C1 cells; Homo sapiens) is reported as 26 nM and the IC50 (W1L2:R865 cell line; [3]) is reported as > 500 nM.
